Experimental data taken from patent publication US20260055154A1, “LONG-ACTING DUAL-AGONIST COMPOUND” (CHENGDU AODA BIOTECHNOLOGY CO., LTD, priority 2022, published 2026).
Where two headings read alike, the source gives them in different places. Starred links: 1 amine or outer side, 2 acyl side, 3 side chain; linkers in the order of their positions; H or OH if unused. Non-standard residues stand in square brackets, D forms with d. Residues, ends and D or L forms follow the SMILES beside them. Groups on a side chain read outwards from the residue. No end group written: not given here. *: point of attachment. X1 = O=C(O)CCCCCCCCCCCCCCCCCCC(=O)N[C@@H](CCC(=O)NCCOCCOCCOCCOCCOCC(=O)*)C(=O)O; C20 diacid = O=C(O)CCCCCCCCCCCCCCCCCCC(=O)*; γGlu = O=C(O)[C@H](CCC(=O)[*:2])N[*:1]; AEEA = NCCOCCOCC(=O)O; Aib = CC(C)(N)C(=O)O

Tests used:
in vivo [1] = settings: human
in vivo [2] = assay: in vivo; set-up: species or system cynomolgus monkeys; settings: male, cynomolgus monkey, sc, 0.2 mg/kg
Description: The experimental animals were cynomolgus monkeys, and two male cynomolgus monkeys in each group were subcutaneously administrated the compound at a dose of 0.2 mg/kg. The venous blood samples were collected before drug administration (0 h), and 1 h, 2 h, 3 h, 4 h, 8 h, 12 h, 18 h, 24 h, 48 h, 96 h, 144 h and 168 h after administration, respectively. The plasma samples were separated by centrifugation. The blood drug concentrations of the corresponding compounds in the plasma samples were determined by liquid chromatography-mass spectrometry.

GcgR = biological target: T1, GcgR (Homo sapiens, UniProt P47871); assay: Gcg activity determination (cAMP, chemiluminescence, stable cell line); assay type: cell-based; settings: CHO-K1 cell line stably expressing GcgR; OXM3 as reference
T1 construct: expressed in transfected cells; host or cells: CHO-K1
Description: (§1) GcgR activates the intracellular adenylate cyclase pathway under the stimulation of its specific agonist, to increase the cAMP level and ultimately lead to the production and release of insulin. The stably cell line expressing GcgR was stimulated by the test substance to rapidly increase the intracellular cAMP level. The relative light units (RLU) in the cells after the stimulation by each dose of agonists were determined by the chemiluminescence method, and then the EC50 of the agonist was calculated. This activity determination method is currently a common determination method for Geg receptor agonist activity at home and abroad.
A CHO-K1 cell line stably expressing GcgR was adopted. The cells were stimulated with different concentrations of agonists, and the relative light units (RLU) after the stimulation of cells by each dose of agonists were determined. Using OXM3 as a reference, the relative biological activity of the agonist was obtained.

GLP-1R = biological target: T2, GLP-1R (Homo sapiens, UniProt P43220); assay: Determination of GLP-1 activity (cAMP, chemiluminescence, stable cell line); assay type: cell-based; settings: CHO-K1 cell line stably expressing GLP-1R; OXM3 as reference substance
T2 construct: expressed in transfected cells; host or cells: CHO-K1
Description: as §1, with “GLP-1R” for “GcgR”, “stable” for “stably”, “after” for “after the”, “the test substance” for “agonists”, “GLP-1” for “Geg”
A CHO-K1 cell line that stably expresses GLP-IR was adopted, and the cells were stimulated with different concentrations of agonists. The relative light units after stimulation of the cells by each dose of agonists were measured. Using OXM3 as a reference substance, the relative biological activity of each agonist was obtained.

[3] = human, in vivo; cited from earlier work

T1 sequence (P47871 26-477, species assumed): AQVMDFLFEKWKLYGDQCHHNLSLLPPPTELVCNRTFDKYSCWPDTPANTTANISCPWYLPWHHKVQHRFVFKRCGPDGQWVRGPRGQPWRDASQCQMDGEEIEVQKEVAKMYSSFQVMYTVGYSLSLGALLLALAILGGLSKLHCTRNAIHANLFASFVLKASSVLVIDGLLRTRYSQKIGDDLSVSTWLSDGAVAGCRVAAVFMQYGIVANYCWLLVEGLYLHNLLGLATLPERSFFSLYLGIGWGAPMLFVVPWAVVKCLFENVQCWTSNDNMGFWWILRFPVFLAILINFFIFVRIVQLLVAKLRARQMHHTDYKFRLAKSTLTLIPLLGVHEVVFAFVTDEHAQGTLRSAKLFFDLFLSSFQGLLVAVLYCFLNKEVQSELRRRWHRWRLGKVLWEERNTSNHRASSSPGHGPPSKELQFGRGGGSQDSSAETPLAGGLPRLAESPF
T2 sequence (P43220 24-463, species assumed): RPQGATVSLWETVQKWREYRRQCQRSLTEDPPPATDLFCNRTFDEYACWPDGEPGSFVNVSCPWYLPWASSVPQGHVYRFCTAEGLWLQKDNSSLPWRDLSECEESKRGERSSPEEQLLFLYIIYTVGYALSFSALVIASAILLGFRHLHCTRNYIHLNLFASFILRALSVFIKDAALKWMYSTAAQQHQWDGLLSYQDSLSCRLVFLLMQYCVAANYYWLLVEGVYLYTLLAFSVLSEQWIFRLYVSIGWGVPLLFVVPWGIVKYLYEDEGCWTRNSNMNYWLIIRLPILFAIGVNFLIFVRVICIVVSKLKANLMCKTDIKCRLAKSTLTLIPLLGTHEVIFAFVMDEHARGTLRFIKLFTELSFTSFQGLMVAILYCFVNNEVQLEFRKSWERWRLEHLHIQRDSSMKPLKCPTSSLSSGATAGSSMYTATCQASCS

Compound	half-life (in vivo [1]) [h]	half-life (in vivo [2]) [h]	Biological activity (%) (GcgR)	Relative biological activity (GLP-1R) [%]	half-life [3] [h]
CC(C)C[C@H](NC(=O)[C@H](CC(C)C)NC(=O)[C@H](Cc1c[nH]c2ccccc12)NC(=O)[C@H](CCC(=O)O)NC(=O)[C@@H](NC(=O)[C@H](Cc1ccccc1)NC(=O)[C@H](CCC(=O)O)NC(=O)[C@H](CCCCNC(=O)COCCOCCOCCOCCOCCNC(=O)CC[C@H](NC(=O)CCCCCCCCCCCCCCCCCCC(=O)O)C(=O)O)NC(=O)[C@H](C)NC(=O)[C@H](CCCCN)NC(=O)[C@H](CCCCN)NC(=O)[C@H](CCC(=O)O)NC(=O)[C@H](CC(=O)O)NC(=O)[C@H](CC(C)C)NC(=O)[C@H](Cc1ccc(O)cc1)NC(=O)[C@H](CCCCN)NC(=O)[C@H](CO)NC(=O)[C@H](Cc1ccc(O)cc1)NC(=O)[C@H](CC(=O)O)NC(=O)[C@H](CO)NC(=O)[C@@H](NC(=O)[C@H](Cc1ccccc1)NC(=O)[C@@H](NC(=O)CNC(=O)[C@H](CCC(N)=O)NC(=O)C(C)(C)NC(=O)[C@@H](N)Cc1c[nH]cn1)[C@@H](C)O)[C@@H](C)O)C(C)C)C(=O)N[C@@H](CCC(=O)O)C(=O)NCC(=O)NCC(=O)N1CCC[C@H]1C(=O)N[C@@H](CO)C(=O)N[C@@H](CO)C(=O)NCC(=O)N[C@@H](C)C(=O)N1CCC[C@H]1C(=O)N1CCC[C@H]1C(=O)N1CCC[C@H]1C(=O)N[C@@H](CO)C(N)=O [Compound 2, His-Aib-Gln-Gly-Thr-Phe-Thr-Ser-Asp-Tyr-Ser-Lys-Tyr-Leu-Asp-Glu-Lys-Lys-Ala-Lys(PEG5CH2CO-γGlu-eicosanedioic acid)-Glu-Phe-Val-Glu-Trp-Leu-Leu-Glu-Gly-Gly-Pro-Ser-Ser-Gly-Ala-Pro-Pro-Pro-Ser-NH2] (H-H[Aib]QGTFTSDYSKYLDEKKAK(X1)EFVEWLLEGGPSSGAPPPS-NH2)	~280	140	86.9	259.9	
His-Aib-Gln-Gly-Thr-Phe-Thr-Ser-Asp-Tyr-Ser-Lys-Tyr-Leu-Asp-Glu-Lys-Lys-Ala-Lys(AEEA-AEEA-γGlu-eicosanedioic acid)-Glu-Phe-Val-Glu-Trp-Leu-Leu-Glu-Gly-Gly-Pro-Ser-Ser-Gly-NH2 (H[Aib]QGTFTSDYSKYLDEKKAK([AEEA-AEEA-γGlu-C20 diacid])EFVEWLLEGGPSSG-NH2) [OXM3]					120
